Test results reported in ChEMBL document CHEMBL4602730, “In Vitro and in Vivo Evaluation of Membrane-Active Flavone Amphiphiles: Semisynthetic Kaempferol-Derived Antimicrobials against Drug-Resistant Gram-Positive Bacteria” (J Med Chem, 2020).
Converted amounts (≈) assume the structure as drawn. The source made the active and inactive calls. No cut-off for these calls is given here.

Assays:
Staphylococcus aureus [1] = test: Antibacterial activity against Staphylococcus aureus ATCC 29213 assessed as induction of bacterial killing at 4 times MIC incubated for 8 hrs followed by re-plating of cultures and measured after 24 hrs by time kill study relative to control; format: functional
Staphylococcus aureus [2] = test: Antibacterial activity against methicillin-resistant Staphylococcus aureus N315 assessed as inhibition of bacterial growth incubated for 24 hrs by broth microdilution method; format: functional; conditions: N315, 24 h
Staphylococcus aureus [3] = test: Antibacterial activity against Staphylococcus aureus ATCC 29213 assessed as inhibition of bacterial growth incubated for 24 hrs by broth microdilution method; format: functional; conditions: ATCC 29213, 24 h
Staphylococcus aureus [4] = test: Antibacterial activity against methicillin-resistant Staphylococcus aureus NCTC 10442 assessed as inhibition of bacterial growth incubated for 24 hrs by broth microdilution method; format: functional; conditions: NCTC 10442, 24 h
Staphylococcus aureus [5] = test: Induction of bacterial cell membrane integrity loss in Staphylococcus aureus ATCC 29213 incubated for 2 hrs propidium iodide and SYTO9 dye based LIVE/DEAD bacterial viability assay; format: functional, organism-based
Staphylococcus aureus [6] = test: Induction of cytoplasmic membrane permeabilization in Staphylococcus aureus ATCC 29213 at 1 to 8 times MIC by SYTOX green dye based fluorescence assay; format: functional, organism-based
Staphylococcus aureus [7] = test: Antibacterial activity against Staphylococcus aureus ATCC 29213 assessed as induction of bacterial killing at 4 times MIC incubated for 1 hrs followed by re-plating of cultures and measured after 24 hrs by time kill study relative to control; format: functional
Staphylococcus aureus [8] = test: Induction of cytoplasmic membrane permeabilization in methicillin-resistant Staphylococcus aureus NCTC 10442 at 1 to 8 times MIC by SYTOX green dye based fluorescence assay; format: functional, organism-based
Pseudomonas aeruginosa = test: Antibacterial activity against Pseudomonas aeruginosa assessed as inhibition of bacterial growth incubated for 24 hrs by broth microdilution method; format: functional
[9] = Cytotoxicity in human MDA-MB-231 cells assessed as reduction in cell viability incubated for 24 hrs by CCK8 assay; format: cell-based
Staphylococcus aureus [10] = test: Resistance index, ratio of MIC for antibacterial activity against Staphylococcus aureus ATCC 29213 passed over 19 cycles in presence of compound for period of 19 consecutive days by broth microdilution method to MIC for antibacterial activity against Staphylococcus aureus ATCC 29213; format: functional
Escherichia coli = test: Antibacterial activity against Escherichia coli assessed as inhibition of bacterial growth incubated for 24 hrs by broth microdilution method; format: functional
[11] = Cytotoxicity in human MDA-MB-231 cells assessed as cell viability at 16 times MIC incubated for 24 hrs by CCK8 assay relative to control; format: cell-based; conditions: read-out: Activity
Staphylococcus aureus [12] = test: Antibacterial activity against Staphylococcus aureus ATCC 29213 assessed as induction of bacterial killing at 8 times MIC incubated for 0.5 hrs followed by re-plating of cultures and measured after 24 hrs by time kill study relative to control; format: functional
[13] = Induction of hemolysis in rabbit RBC incubated for 1 hr; format: cell-based, Oryctolagus cuniculus, Erythrocyte; conditions: rabbit red blood cells (erythrocytes)
Staphylococcus aureus [14] = test: Antibacterial activity against Staphylococcus aureus ATCC 29213 assessed as suppression of bacterial re-growth at 4 to 8 times MIC incubated for 0.5 to 24 hrs followed by re-plating of cultures and measured after 24 hrs by time kill study relative to control; format: functional, organism-based
Staphylococcus aureus [15] = test: Induction of cell surface disruption in Staphylococcus aureus ATCC 29213 at 8 times MIC incubated for 2 hrs by scanning electron microscopy; format: functional, organism-based
[16] = Cytotoxicity in mouse corneal epithelial cells assessed as cell viability at 16 times MIC incubated for 24 hrs by CCK8 assay relative to control; format: cell-based; conditions: read-out: Activity
Staphylococcus aureus [17] = test: Antibacterial activity against Staphylococcus aureus ATCC 29213 assessed as bacterial cell killing at 4 times MIC incubated for 1 hrs followed by re-plating of cultures and measured after 24 hrs by time kill study relative to control; format: functional

| SMILES | LCK (Staphylococcus aureus [1]) | MIC (Staphylococcus aureus [2]) | MIC (Staphylococcus aureus [3]) | MIC (Staphylococcus aureus [4]) | Activity (Staphylococcus aureus [5]) | Activity (Staphylococcus aureus [6]) | LCK (Staphylococcus aureus [7]) | Activity (Staphylococcus aureus [8]) | MIC (Pseudomonas aeruginosa) | CC50 at 24 h [9] | Ratio (Staphylococcus aureus [10]) | MIC (Escherichia coli) | viability at 24 h, 16 times MIC [11] | LCK (Staphylococcus aureus [12]) | HC50 at 1 h [13] | Activity (Staphylococcus aureus [14]) | Activity (Staphylococcus aureus [15]) | viability at 24 h, 16 times MIC [16] | Activity (Staphylococcus aureus [17]) |
| --- | --- | --- | --- | --- | --- | --- | --- | --- | --- | --- | --- | --- | --- | --- | --- | --- | --- | --- | --- |
| CN[C@H](CC(C)C)C(=O)N[C@H]1C(=O)N[C@@H](CC(N)=O)C(=O)N[C@H]2C(=O)N[C@H]3C(=O)N[C@H](C(=O)N[C@H](C(=O)O)c4cc(O)cc(O)c4-c4cc3ccc4O)[C@H](O)c3ccc(c(Cl)c3)Oc3cc2cc(c3O[C@@H]2O[C@H](CO)[C@@H](O)[C@H](O)[C@H]2O[C@H]2C[C@](C)(N)[C@H](O)[C@H](C)O2)Oc2ccc(cc2Cl)[C@H]1O [VANCOMYCIN] | 1.18 | 1.08 µM (≈ 1.57 µg/mL) | 0.54 µM (≈ 0.783 µg/mL) | 1.08 µM (≈ 1.57 µg/mL) | – | – | – | – | – | – | – | – | – | – | – | – | – | – | – |
| COC(=O)[C@H](CCCNC(=N)N)NC(=O)COc1c(-c2ccc(OCC=C(C)C)cc2)oc2cc(OCC=C(C)C)cc(O)c2c1=O | – | 2.4 µM (≈ 1.56 µg/mL) | 4.8 µM (≈ 3.12 µg/mL) | 4.8 µM (≈ 3.12 µg/mL) | Active | Active | 3.19 | Active | inactive | > 50 µg/mL | <=4 | inactive | 67.3% | 3.78 | 107 µM | Active | Active | 62.1% | >=99.9% |
